Earlier results in US20060018842A1, “Composition and method for delivery of phytochemicals” (priority 2004, published 2006).
Entries after “also recorded” stand apart in the source; their conditions may differ.

Tested on: microorganisms named in the source
Details: not given
In the case of COc1cc(CNC(=O)CCCC/C=C/C(C)C)ccc1O [Capesicin], the Activity is given as “Bacteria”.

Same assay, conditions: organisms against which activity was observed; General = general antimicrobial
For Pebatin, the Activity is given as “Bacteria”. In the case of Catechin, the Activity is listed as “General; also recorded: Shigella; also recorded: Vibrio; also recorded: S. mutans; also recorded: Viruses”. For C=CCSSC=CC[S+]([O-])CC=C (mixture of isomers) [ajoene], the Activity is given as “General”. For Caffaio acids, the Activity is listed as “Viruses, holminths”. For O=C(/C=C/C=C/c1ccc2c(c1)OCO2)N1CCCCC1 [Piperdine], the Activity is given as “Fungi, Lactobacillus,; also recorded: Micrococcus, E. coli; also recorded: E. facecalis”. In the case of O=C(O)c1ccc(O)cc1O [β-Resorcyclic acid], the Activity is given as “Bacteria and viruses”. For CC1(C)C=Cc2c(cc3occ(-c4ccc(O)cc4)c(=O)c3c2O)O1 [Alpinumisoflavone], the Activity is listed as “Schiatosome”. For O=C(CCc1ccc(O)cc1)c1c(O)cc(O)cc1O [Phloretin], the Activity is listed as “General”. In the case of C=C1C(=O)[C@]23C[C@H]1C[C@@H](O)[C@H]2[C@@]1(CCCC(C)(C)[C@H]1C=O)COC3=O [Trichorabdal A], the Activity is given as “Helicobacter pylori”. For CC(C)=CCC1=C(O)C(C(=O)CC(C)C)=C(O)C(CC=C(C)C)(CC=C(C)C)C1=O [Lupulone], the Activity is given as “General”. For CC1=C(CO)C(=O)O[C@@H]([C@@H](C)[C@H]2CC[C@H]3[C@@H]4C[C@H]5O[C@]56[C@@H](O)C=CC(=O)[C@]6(C)[C@H]4CC[C@]23C)C1 [Withafarin A], the Activity is given as “Bacteria, fungi”. In the case of COC(=O)[C@H]1[C@H]2C[C@@H]3c4[nH]c5cc(OC)ccc5c4CCN3C[C@H]2C[C@@H](OC(=O)c2cc(OC)c(OC)c(OC)c2)[C@@H]1OC [Roserpine, reference compound], the Activity is listed as “General”. For Hexemal, the Activity is listed as “General”. In the case of CC1CCC(C(C)C)C(O)C1 (stereo not drawn) [Menthol, reference compound], the Activity is given as “General”. For O=C(CO)[C@@H](O)[C@H](O)[C@H](O)CO [Fructose], the Activity is given as “E. coli; also recorded: Bacteria”. In the case of COc1cc2c(c(OC)c1OC)-c1ccc(OC)c(=O)cc1[C@@H](NC(C)=O)CC2 [Colchicines, reference compound], the Activity is listed as “General”. In the case of C=C1C=CC(=O)O1 [Protoanemonia], the Activity is given as “General”. For C=CCc1ccc(O)c(OC)c1 [Eugonol], the Activity is listed as “General”. In the case of C/C(=C\CC[C@H](C)[C@@H]1CC[C@]2(C)C3=CC[C@H]4C(C)(C)C(=O)CC[C@]4(C)[C@H]3CC[C@@]12C)C(=O)O [Terebinthone], the Activity is listed as “General”. In the case of CC(Cc1ccc(O)c(O)c1)C(C)Cc1ccc(O)c(O)c1 (stereo not drawn) [Nordihydrogual-aretic acid], the Activity is given as “Skin bacteria”. For COc1ccc2c(c1OC)C(=O)O[C@@H]2[C@H]1c2cc3c(cc2CCN1C)OCO3 [hydrastine], the Activity is listed as “Bacteria, Giardia duodenals,; also recorded: trypanosomes; also recorded: Platmodia”. For COc1ccc2cc3[n+](cc2c1OC)CCc1cc2c(cc1-3)OCO2 [Berberine], the Activity is listed as “Plasmodium; also recorded: Trypansomea, general; also recorded: Bacteria, protozoa; also recorded: Bacteria, Giardia duodenals,; also recorded: trypanosomes; also recorded: Platmodia”. In the case of COc1cc(CCN)cc(OC)c1OC [Mascaline], the Activity is listed as “General”. For CC(C)=CCc1cc(O)c(O)c(CC=C(C)C)c1[C@H]1Oc2c(CC=C(C)C)c(O)cc(O)c2C(=O)[C@@H]1O [Petalostemumol], the Activity is given as “Bacteria, fungi”. For Cc1ccc(C(C)C)cc1O [Carvacrol], the Activity is given as “General”. For Helanine, the Activity is listed as “General”. In the case of Anthemic acid, the Activity is given as “M. tuberculosis, S. typhi-; also recorded: murium, S. aureus,; also recorded: holminths”. In the case of C=CCS[S+]([O-])CC=C (stereo not drawn) [Allicin], the Activity is listed as “Bacteria, Candida; also recorded: General”. For C=C[C@H]1CN2CC[C@H]1C[C@H]2[C@H](O)c1ccnc2ccc(OC)cc12 [Quiniae, reference compound], the Activity is listed as “Plasmodium spp”. In the case of Asiatocoside, the Activity is given as “M. leprae”. In the case of O=C1C=C(O)C(=O)c2ccccc21 [Lawsone], the Activity is listed as “M. tuberculosis”. For CC(C)=CCc1cc([C@@H]2CC(=O)c3ccc(O)c(CC=C(C)C)c3O2)ccc1O [Glabrol], the Activity is listed as “S. aureus, M. tuberculosis”. In the case of O=C(O)c1cc(O)c(O)c(O)c1 [Gallic acid], the Activity is given as “S. aureus”.

Tested on: oral carcinoma cell line (KB)
Details: features of caspase-3-mediated apoptosis
For CCCCCCCC(=O)CCc1ccc(O)c(OC)c1 [[6]-paradol], the Cytotoxicity is given as “dose-dependent cytotoxicity”.

Same assay, conditions: incubated for 48 h
In the case of CCCCCCCC(=O)CCc1ccc(O)c(OC)c1 [[6]-paradol], the “Viable KB cells, % of untreated control” value is given as “less than 50%”.

Tested on: mouse skin
Details: not given
For CCCCCCCC(=O)CCc1ccc(O)c(OC)c1 [[6]-paradol], the “Protection from tumor inducing agent” value is given as “protected mouse skin from a tumor inducing agent”.

Tested on: human breast cancer xenografts
Details: mice
In the case of COc1cc(/C=C/C(=O)CC(=O)/C=C/c2ccc(O)c(OC)c2)ccc1O [curcumin], the “Growth and metastasis of xenografts” value is given as “reduce the growth and metastasis”.

Tested on: oral cancer cell line KB-1
Details: key protein for gap junction formation
In the case of CC(C)=CCC/C(C)=C/C=C/C(C)=C/C=C/C(C)=C/C=C/C=C(C)/C=C/C=C(C)/C=C/C=C(\C)CCC=C(C)C [lycopene], the “Induction of connexin 43” value is given as “specifically induced”.

Same assay, conditions: physiological lycopene concentrations
In the case of CC(C)=CCC/C(C)=C/C=C/C(C)=C/C=C/C(C)=C/C=C/C=C(C)/C=C/C=C(C)/C=C/C=C(\C)CCC=C(C)C [lycopene], the “KB-1 cells, % of control cell numbers” value is given as “approximately 10%”.

Tested on: breast cancer cell line MCF7
Details: not given
In the case of CC(C)=CCC/C(C)=C/C=C/C(C)=C/C=C/C(C)=C/C=C/C=C(C)/C=C/C=C(C)/C=C/C=C(\C)CCC=C(C)C [lycopene], the IGF-1 stimulated proliferation is listed as “blocked IGF-1 stimulated proliferation”.

Tested on: oral cancer
Details: not given
For O=C(/C=C/c1ccc(O)c(O)c1)O[C@@H]1C[C@](O)(C(=O)O)C[C@@H](O)[C@H]1O [CGA, chlorogenic acid], the Apoptosis is given as “induced caspase-3-dependent apoptosis”.

Tested on: transformed cells
Details: by activating apoptosis
In the case of epigallocatechin-3-gallate [EGCG], the Growth inhibition is given as “induce growth inhibition”.

Tested on: normal cell
Details: not given
For epigallocatechin-3-gallate [EGCG], the Normal cell growth is listed as “not affected”.

Tested on: oral squamous carcinoma cells
Details: not given
In the case of epigallocatechin-3-gallate [EGCG], the Apoptosis is given as “induce apoptosis”.

Tested on: normal human epidermal keratinocytes
Details: not given
In the case of epigallocatechin-3-gallate [EGCG], the Survival is listed as “survive”.

Tested on: oral squamous cell carcinoma (OSCC) cells
Details: oral tumor cells
In the case of COc1ccc2c3c1O[C@H]1C(=O)C=C[C@H]4[C@@H](C2)N(C)CC[C@]314 [codeinone], the Selectivity of cytotoxicity is given as “selectively higher in oral tumor cells”.

Same assay, conditions: targets the mitochondria
In the case of COc1ccc2c3c1O[C@H]1C(=O)C=C[C@H]4[C@@H](C2)N(C)CC[C@]314 [codeinone], the Apoptosis is listed as “caspase-3-dependent apoptosis”.
